{"source": "paper PMC4865917", "about": "“Positive Allosteric Modulation of the Glucagon-like Peptide-1 Receptor by Diverse Electrophiles” (The Journal of Biological Chemistry, 2016)", "key": {"[1]": {"target": "T1, human GLP-1R (Homo sapiens, UniProt P43220, C347A)", "T1 construct": "gene GLP1R; full-length receptor expressed in HEK293 cells; C347A mutant carries a 1xFLAG tag", "T1 sequence (P43220 24-463 C347A)": "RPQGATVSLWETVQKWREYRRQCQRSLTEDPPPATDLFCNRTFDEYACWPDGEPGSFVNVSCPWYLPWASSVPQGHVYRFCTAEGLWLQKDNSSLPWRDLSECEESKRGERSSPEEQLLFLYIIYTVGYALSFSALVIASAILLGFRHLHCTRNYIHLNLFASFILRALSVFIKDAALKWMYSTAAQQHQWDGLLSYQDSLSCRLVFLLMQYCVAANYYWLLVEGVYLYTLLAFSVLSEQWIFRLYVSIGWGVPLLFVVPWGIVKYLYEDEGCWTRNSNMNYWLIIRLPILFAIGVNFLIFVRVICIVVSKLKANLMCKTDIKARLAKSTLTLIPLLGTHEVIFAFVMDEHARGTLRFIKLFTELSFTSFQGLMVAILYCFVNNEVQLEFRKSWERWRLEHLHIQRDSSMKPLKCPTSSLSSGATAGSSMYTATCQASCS", "test": "HTRF cAMP accumulation, HEK293 cells", "format": "cell-based", "source_text": "(§1) HTRF cAMP accumulation, HEK293 cells on human GLP-1R"}, "[2]": {"target": "T2, human GLP-1R (Homo sapiens, UniProt P43220)", "T2 construct": "gene GLP1R; full-length receptor expressed in HEK293 cells; C347A mutant carries a 1xFLAG tag", "T2 sequence (P43220 24-463)": "as the sequence (P43220 24-463 C347A) above, with A324C counted along it", "test": "HTRF cAMP accumulation, HEK293 cells", "format": "cell-based", "source_text": "as §1"}, "[3]": {"target": "T3, human CatL (Homo sapiens, UniProt P07711)", "T3 construct": "gene CTSL; commercial cathepsin L (Calbiochem)", "T3 sequence (P07711 114-288 limits assumed)": "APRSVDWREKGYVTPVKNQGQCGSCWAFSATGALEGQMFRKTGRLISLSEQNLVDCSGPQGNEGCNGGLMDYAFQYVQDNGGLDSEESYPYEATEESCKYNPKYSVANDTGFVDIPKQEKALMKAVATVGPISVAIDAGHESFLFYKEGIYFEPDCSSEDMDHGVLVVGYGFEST", "T3 sequence (P07711 292-333 limits assumed)": "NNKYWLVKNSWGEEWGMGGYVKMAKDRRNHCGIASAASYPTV", "test": "fluorogenic Z-Phe-Arg-AMC hydrolysis", "format": "biochemical"}, "[4]": {"target": "T2, human GLP-1R", "test": "anti-FLAG immunoprecipitation, PAGE fluorography", "format": "cell-based", "conditions": "500 nM [3H]BETP, 2 h, 37 °C, GLP-1R-3xFLAG in HEK293; covalent; labelled compound"}, "[5]": {"conditions": "read-out: Compound, EC50, C347A (nM) (S.D., n)"}, "[6]": {"conditions": "read-out: Compound, EC50, WT (nM) (S.D., n)"}, "[7]": {"conditions": "read-out: EC50, C347A (nM) (S.D., n)"}, "[8]": {"conditions": "read-out: Compound, EC50 WT (nM) (S.D., n)"}}, "note": "Read-outs that look alike come from different tables or passages of the source."}
{"compound": "CS(=NC(=O)Nc1ccc(Cl)cc1)c1sc(Cl)c2c1C(=O)CCC2", "note": "(centres unmarked) [compound 16]", "values": [{"measurement": "EC50", "setting": "[1]; [5]", "value": "> 30000", "unit": "nM"}, {"measurement": "EC50", "setting": "[2]; [6]", "value": 5200, "unit": "nM"}, {"measurement": "IC50", "setting": "[3]; read-out: CatL,^c IC50", "value": 12, "unit": "µM"}]}
{"compound": "CS(=O)(=O)c1nc(-c2ccccc2)cc(-c2ccccc2)c1C#N", "note": "[compound 12]", "values": [{"measurement": "EC50", "setting": "[1]; [5]", "value": "> 30000", "unit": "nM"}, {"measurement": "EC50", "setting": "[2]; [6]", "value": 6000, "unit": "nM"}, {"measurement": "IC50", "setting": "[3]; read-out: CatL,^c IC50", "value": "> 33", "unit": "µM"}]}
{"compound": "CC[S+]([O-])c1nc(-c2cccc(OCc3ccccc3)c2)cc(C(F)(F)F)n1", "note": "(centres unmarked) [BETP, 4-(3-benzyloxyphenyl)-2-ethylsulfinyl-6-(trifluoromethyl)pyrimidine]", "values": [{"measurement": "EC50", "setting": "[1]; [7]", "value": "> 30000", "unit": "nM"}, {"measurement": "EC50", "setting": "[2]; [8]", "value": 1300, "unit": "nM"}, {"measurement": "anti-FLAG immunoprecipitation, PAGE fluorography", "setting": "[4]", "value": "The finding that [^3H]BETP irreversibly labels the GLP-1R"}, {"measurement": "IC50", "setting": "[3]; read-out: CatL,^c IC50", "value": "> 33", "unit": "µM"}]}
{"compound": "CC1(C)CC(=O)c2c(S(C)(=O)=O)sc(C(=O)c3ccc(-c4ccccc4)cc3)c2C1", "note": "[compound 6]", "values": [{"measurement": "EC50", "setting": "[1]; [7]", "value": "> 30000", "unit": "nM"}, {"measurement": "EC50", "setting": "[2]; [8]", "value": 1430, "unit": "nM"}]}
{"compound": "FC(F)(F)c1nc2cc(Cl)c(Cl)cc2nc1Cl", "note": "[compound 3]", "values": [{"measurement": "EC50", "setting": "[1]; [7]", "value": "> 30000", "unit": "nM"}, {"measurement": "EC50", "setting": "[2]; [8]", "value": 4700, "unit": "nM"}]}
{"compound": "FC(F)(F)c1nc2ccccc2nc1Sc1ccc(Cl)cc1", "note": "[compound 7]", "values": [{"measurement": "EC50", "setting": "[2]; [8]", "value": "> 30000", "unit": "nM"}]}
{"compound": "CC(C)(C)Nc1nc2cc(Cl)c(Cl)cc2nc1S(C)(=O)=O", "note": "[compound 2]", "values": [{"measurement": "EC50", "setting": "[1]; [7]", "value": "> 30000", "unit": "nM"}, {"measurement": "EC50", "setting": "[2]; [8]", "value": 25, "unit": "nM"}]}
{"compound": "CC(=O)NC1=C(Cl)C(=O)c2ccccc2C1=O", "note": "[compound 18]", "values": [{"measurement": "EC50", "setting": "[1]; [5]", "value": "> 30000", "unit": "nM"}]}
{"compound": "O=C(NCc1ccccc1)[C@H](Cc1ccccc1)NC(=O)[C@H]1O[C@@H]1C(=O)NCCc1ccc(O)cc1", "note": "[CAA0225, (2S,3S)-N2-[(1S)-1-benzyl-2-(benzylamino)-2-oxo-ethyl]-N3-[2-(4-hydroxyphenyl)ethyl]oxirane-2,3-dicarboxamide, reference compound]", "values": [{"measurement": "IC50", "setting": "[3]; read-out: IC50", "value": 0.006, "unit": "µM"}]}
{"compound": "O=C(Oc1cccc(-c2cn3cc(C(F)(F)F)cc(Cl)c3n2)c1)C1CCCCC1", "note": "[compound 8]", "values": [{"measurement": "EC50", "setting": "[2]; [8]", "value": "> 30000", "unit": "nM"}]}
{"compound": "O=C1C=CC(=O)N1c1cccc(C(F)(F)F)c1", "note": "[compound 19]", "values": [{"measurement": "EC50", "setting": "[1]; [5]", "value": "> 30000", "unit": "nM"}]}
{"compound": "O=[N+]([O-])c1ccc2nc(S(=O)(=O)c3ccc(Cl)cc3)sc2c1", "note": "[compound 17]", "values": [{"measurement": "EC50", "setting": "[1]; [5]", "value": "> 30000", "unit": "nM"}, {"measurement": "IC50", "setting": "[3]; read-out: CatL,^c IC50", "value": 8, "unit": "µM"}]}
{"compound": "Cc1ccc(-c2cccc(C(=O)NC(Cc3ccc(-c4noc(-c5ccc(NC(=O)OC(C)(C)C)cc5)n4)c(F)c3)C(=O)O)c2)cc1", "note": "(centres unmarked) [compound 9]", "values": [{"measurement": "EC50", "setting": "[1]; [7]", "value": 1400, "unit": "nM"}, {"measurement": "EC50", "setting": "[2]; [8]", "value": 1500, "unit": "nM"}]}
{"compound": "CCOC(=O)c1ccc(N2Cc3ccccc3C(=Cc3ccc(Br)cc3)C2=N)cc1", "note": "[compound 13]", "values": [{"measurement": "EC50", "setting": "[1]; [5]", "value": "> 30000", "unit": "nM"}, {"measurement": "EC50", "setting": "[2]; [6]", "value": 1000, "unit": "nM"}, {"measurement": "IC50", "setting": "[3]; read-out: CatL,^c IC50", "value": "> 33", "unit": "µM"}]}
{"compound": "Clc1nc2ccc3nsnc3c2nc1Cl", "note": "[compound 14]", "values": [{"measurement": "EC50", "setting": "[1]; [5]", "value": "> 30000", "unit": "nM"}, {"measurement": "IC50", "setting": "[3]; read-out: CatL,^c IC50", "value": "> 33", "unit": "µM"}]}
{"compound": "CC1(C)CC(=O)c2c(S(C)(=O)=O)sc(-c3nnc(-c4ccc(C(C)(C)C)cc4)o3)c2C1", "note": "[compound 5]", "values": [{"measurement": "EC50", "setting": "[1]; [7]", "value": "> 30000", "unit": "nM"}, {"measurement": "EC50", "setting": "[2]; [8]", "value": 1500, "unit": "nM"}]}
{"compound": "Clc1nc2c(-c3ccccc3)nnn2c2ccccc12", "note": "[compound 11]", "values": [{"measurement": "EC50", "setting": "[1]; [5]", "value": "> 30000", "unit": "nM"}, {"measurement": "EC50", "setting": "[2]; [6]", "value": 7000, "unit": "nM"}, {"measurement": "IC50", "setting": "[3]; read-out: CatL,^c IC50", "value": "> 33", "unit": "µM"}]}
{"compound": "O=S(=O)(c1ccccc1)c1nc(-c2ccccc2)ns1", "note": "[compound 15]", "values": [{"measurement": "EC50", "setting": "[1]; [5]", "value": "> 30000", "unit": "nM"}, {"measurement": "EC50", "setting": "[2]; [6]", "value": 1300, "unit": "nM"}, {"measurement": "IC50", "setting": "[3]; read-out: CatL,^c IC50", "value": 25, "unit": "µM"}]}
{"compound": "Cc1nnc(Sc2nc3cc(Cl)c(Cl)cc3nc2C(F)(F)F)s1", "note": "[compound 1]", "values": [{"measurement": "EC50", "setting": "[1]; [7]", "value": "> 30000", "unit": "nM"}, {"measurement": "EC50", "setting": "[2]; [8]", "value": 860, "unit": "nM"}]}
{"compound": "CCSc1nc(-c2cccc(OCc3ccccc3)c2)cc(C(F)(F)F)n1", "note": "[th-BETP, 4-(3-benzyloxyphenyl)-2-ethylsulfanyl-6-(trifluoromethyl)pyrimidine]", "values": [{"measurement": "EC50", "setting": "[2]; [8]", "value": "> 30000", "unit": "nM"}]}
